# Measured values reported in patent publication US8299302B2 (priority 2007, dated 2012).
# Like-named read-outs stand apart in the source and are kept apart here.
# What was measured:
# Botrytis cinerea = assay: Botrytis test (bean) / protective; format: in vivo; conditions: 48 h, read-out: efficacy
# Experimental: (§1) To produce a suitable preparation of active compound, 1 part by weight of active compound is mixed with the stated amounts of solvent and emulsifier, and the concentrate is diluted with water to the desired concentration.
# To test for protective activity, young plants are sprayed with the active compound preparation at the stated application rate. After the spray coating has dried on, 2 small pieces of agar overgrown with Botrytis cinerea are placed on each leaf. The inoculated plants are then placed in a darkened chamber at about 20° C. and 100% relative atmospheric humidity.
# Two days after the inoculation the size of the infected spots on the leaves is evaluated. 0% means an efficacy which corresponds to that of the control, whereas an efficacy of 100% means that no infection is observed.
# Puccinia recondita = assay: Puccinia test (wheat) / protective; format: in vivo; conditions: 240 h, read-out: efficacy
# Experimental: as §1
# To test for protective activity, young plants are sprayed with the active compound preparation at the stated application rate. After the spray coating has dried on, the plants are sprayed with a conidia suspension of Puccinia recondita. The plants remain in an incubation cabin at 20° C. and 100% relative atmospheric humidity for 48 hours.
# The plants are then placed in a greenhouse at a temperature of about 20° C. and a relative atmospheric humidity of 80% to promote the development of rust pustules.
# (§2) Evaluation is carried out 10 days after the inoculation. 0% means an efficacy which corresponds to that of the control, whereas an efficacy of 100% means that no infection is observed.
# Podosphaera leucotricha = assay: Podosphaera test (apple) / protective; format: in vivo; conditions: 240 h, read-out: efficacy
# Experimental: as §1
# (§3) To test for protective activity, young plants are sprayed with the active compound preparation at the stated application rate. After the spray coating has dried on, the plants are inoculated with an aqueous spore suspension of the apple mildew pathogen Podosphaera leucotricha. The plants are then placed in a greenhouse at about 23° C. and a relative atmospheric humidity of about 70%.
# as §2
# Sphaerotheca fuliginea = assay: Sphaerotheca test (cucumber) / protective; format: in vivo; conditions: Podosphaera fuliginea, 168 h, read-out: efficacy
# Experimental: as §1
# as §3, with “dried,” for “dried on,”, “Sphaerotheca fuliginea.” for “the apple mildew pathogen Podosphaera leucotricha.”
# Evaluation is carried out 7 days after the inoculation. 0% means an efficacy which corresponds to that of the control, whereas an efficacy of 100% means that no infection is observed.
# Uromyces appendiculatus = assay: Uromyces test (bean) / protective; format: in vivo; conditions: 240 h, read-out: efficacy
# Experimental: as §1
# To test for protective activity, young plants are sprayed with the active compound preparation at the stated application rate. After the spray coating has dried on, the plants are inoculated with an aqueous spore suspension of the bean rust pathogen Uromyces appendiculatus and then remain in an incubation cabin at about 20° C. and 100% relative atmospheric humidity for 1 day.
# The plants are then placed in a greenhouse at about 21° C. and a relative atmospheric humidity of about 90%.
# as §2
# [1] = bean plants, protective spray, active compound concentration 250 ppm, evaluation two days after inoculation
# [2] = bean plants, protective spray, active compound concentration 10 ppm, evaluation 10 days after inoculation
# [3] = wheat plants, protective spray, active compound concentration 1000 ppm, evaluation 10 days after inoculation
# [4] = cucumber plants, protective spray, active compound concentration 100 ppm, evaluation 7 days after inoculation
# [5] = apple plants, protective spray, active compound concentration 100 ppm, evaluation 10 days after inoculation
"logP (logP (acidic, pH 2.3); pH 2.3, logP acidic, acidic)",SMILES,pest or weed control at 250 ppm (Botrytis cinerea) [%],"logP (logP (acidic, pH 2.3); pH 2.3)",pest or weed control at 1000 ppm (Puccinia recondita) [%],pest or weed control at 100 ppm (Podosphaera leucotricha) [%],pest or weed control at 100 ppm (Sphaerotheca fuliginea) [%],further results
–,Cc1cc(Oc2ccc(-c3ccccc3Cl)cc2)c(C)cc1/N=C/N1CCCCC1 [Compound 26],≥ 70,2.77,≥ 70,≥ 70,≥ 70,–
–,CCN(C)C=Nc1cc(C)c(Oc2ccc(-c3ccccc3C(C)=O)cc2)cc1C [Compound 18],≥ 70,2.29,≥ 70,≥ 70,≥ 70,pest or weed control at 10 ppm (Uromyces appendiculatus): ≥ 70%
3.13,"Cc1cc(Oc2ccc(C3CCCC3)cc2)c(C)cc1/N=C/N1CCCCC1 [Compound 35, 4-(4-cyclopentylphenoxy)-2,5-dimethyl-N-[(1E)-piperidin-1-ylmethylene]aniline]",–,–,–,–,–,pest or weed control at 250 ppm (Botrytis cinerea; [1]): ≥ 70%; pest or weed control at 10 ppm (Uromyces appendiculatus; [2]): ≥ 70%; pest or weed control at 1000 ppm (Puccinia recondita; [3]): ≥ 70%; pest or weed control at 100 ppm (Sphaerotheca fuliginea; [4]): ≥ 70%
–,CCN(C)C=Nc1cc(C)c(Oc2ccc(-c3ccccc3OC)cc2)cc1C [Compound 19],≥ 70,2.49,≥ 70,–,≥ 70,pest or weed control at 10 ppm (Uromyces appendiculatus): ≥ 70%
–,Cc1cc(Oc2ccc(-c3ccccc3C(F)(F)F)cc2)c(C)cc1/N=C/N1CCCCC1 [Compound 20],≥ 70,2.93,≥ 70,≥ 70,≥ 70,–
–,CCc1ccccc1-c1ccc(Oc2cc(C)c(/N=C/N3CCCCC3)cc2C)cc1 [Compound 23],≥ 70,3.34,≥ 70,≥ 70,≥ 70,–
2.99,"CCN(C)C=Nc1cc(C)c(Oc2ccc(C3CCCCC3)cc2)cc1C [Compound 38, N′-{4-[4-cyclohexylphenoxy]-2,5-dimethylphenyl}-N-ethyl-N-methylimidoformamide]",–,–,–,–,–,"pest or weed control at 250 ppm (Botrytis cinerea; [1]): ≥ 70%; pest or weed control at 10 ppm (Uromyces appendiculatus; [2]): ≥ 70%; logP (logP (acidic, pH 2.3); pH 2.3, log P (pH 2.3), pH 2.3): 2.99; pest or weed control at 1000 ppm (Puccinia recondita; [3]): ≥ 70%; pest or weed control at 100 ppm (Podosphaera leucotricha; [5]): ≥ 70%; pest or weed control at 100 ppm (Sphaerotheca fuliginea; [4]): ≥ 70%"
2.64,"CCN(C)C=Nc1cc(C)c(Oc2ccc(-c3ccccc3)cc2)cc1C [Compound 31, N′-[4-(biphenyl-4-yloxy)-2,5-dimethylphenyl]-N-ethyl-N-methylimidoformamide]",–,–,–,–,–,–
–,CCN(C)C=Nc1cc(C)c(Oc2ccc(-c3ccccc3F)cc2)cc1C [Compound 17],≥ 70,2.56,≥ 70,≥ 70,≥ 70,pest or weed control at 10 ppm (Uromyces appendiculatus): ≥ 70%
3.41,"CCN(C)C=Nc1cc(C)c(Oc2ccc(-c3ccc(C(C)(C)C)cc3)cc2)cc1C [Compound 7, N′-(2,5-dimethyl-4-{[4′-(tert-butyl)biphenyl-4-yl]oxy}phenyl)-N-ethyl-N-methylimidoformamide]",–,–,–,–,–,pest or weed control at 250 ppm (Botrytis cinerea; [1]): ≥ 70%; pest or weed control at 100 ppm (Podosphaera leucotricha; [5]): ≥ 70%; pest or weed control at 100 ppm (Sphaerotheca fuliginea; [4]): ≥ 70%
–,CC(=O)c1ccccc1-c1ccc(Oc2cc(C)c(/N=C/N3CCCCC3)cc2C)cc1 [Compound 22],≥ 70,3.52,–,≥ 70,≥ 70,–
2.13,"CCN(C)C=Nc1cc(C)c(Oc2ccc(-c3ccc(N(C)C)cc3)cc2)cc1C [Compound 4, N′-(4-{[4′-(dimethylamino)biphenyl-4-yl]oxy}-2,5-dimethylphenyl)-N-ethyl-N-methylimidoformamide]",–,–,–,–,–,–
3.2,"Cc1cc(Oc2ccc(C3CCCCC3)cc2)c(C)cc1N=CN(C)C(C)C [Compound 39, N′-{4-[4-cyclohexyl-phenoxy]-2,5-dimethylphenyl}-N-isopropyl-N-methylimidoformamide]",–,–,–,–,–,–

SMILES,"logP (logP (acidic, pH 2.3); pH 2.3, logP acidic, acidic)",pest or weed control at 250 ppm (Botrytis cinerea) [%],"logP (logP (acidic, pH 2.3); pH 2.3)",pest or weed control at 1000 ppm (Puccinia recondita) [%],pest or weed control at 100 ppm (Podosphaera leucotricha) [%],pest or weed control at 100 ppm (Sphaerotheca fuliginea) [%],further results
"CCN(C)C=Nc1cc(C)c(Oc2ccc(-c3ccccc3OCC(C)C)cc2)cc1C [Compound 29, N-ethyl-N′-{4-[(2′-isobutoxybiphenyl-4-yl)oxy]-2,5-dimethylphenyl}-N-methylimidoformamide]",3.14,–,–,–,–,–,–
"Cc1cc(Oc2ccc(-c3ccccc3OCC(C)C)cc2)c(C)cc1/N=C/N1CCCCC1 [Compound 28, 4-[(2′-isobutoxybiphenyl-4-yl)oxy]-2,5-dimethyl-N-[(1E)-piperidin-1-ylmethylene]aniline]",3.44,–,–,–,–,–,–
